Experimental data from US9169241B2, “Quinolinyloxyphenylsulfonamides” (Max-Planck-Gesellschaft Zur Forderung der Wissenschaften …, priority 2009, dated 2015).
Where two headings read alike, the source gives them in different places.

Assays:
[1] = tested on: Hs578T; test: Matrigel outgrowth assay/branching assay; format: cell-based; conditions: Homo sapiens, Hs-578T; HS578T cell line; Table Ib; read-out: Total branching inhibition in Matrigel HS578T
Summary of the method: (§1)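 Matrigel 3 mg/ml, polymerized 1 h 37° C; 5000 cells/well + cmpd 3.125/1.56/0.78 μM or DMSO. Imaged 48/72/96 h, 5× objective. Positive = total branching block.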

[2] = tested on: tumor cell; test: Matrigel outgrowth assay/branching assay (Table Va); format: cell-based
Summary of the method: as §1

[3] = tested on: U118; test: Cell vitality assay (ATP assay, CellTiter-Glo); format: cell-based; conditions: U118, 72 h; Table IIa; read-out: IC50 ATP-Assay after 72 h U118
Summary of the method: (§2)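 Viability is estimated from cellular ATP after 72 h of compound treatment at 1000 cells per well. The dilution series runs 12.5, 6.25, 3.125, 1.56, 0.78, 0.39 and 0.195 μM. Half-maximal values are expressed against DMSO-treated wells.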

[4] = tested on: MDA-MB231; test: Cell vitality assay (ATP assay, CellTiter-Glo); format: cell-based; conditions: Homo sapiens, MDA-MB-231; MDA-MB231, 72 h; Table IIa; read-out: IC50 ATP-Assay after 72 h MDA-MB231
Summary of the method: as §2

[5] = tested on: U138; test: Cell vitality assay (ATP assay, CellTiter-Glo); format: cell-based; conditions: U138, 72 h; Table IIa; read-out: IC50 ATP-Assay after 72 h U138
Summary of the method: as §2

[6] = tested on: SF126; test: Cell vitality assay (ATP assay, CellTiter-Glo); format: cell-based; conditions: Homo sapiens, SF-126; SF126, 72 h; Table IIa; read-out: IC50 ATP-Assay after 72 h SF126
Summary of the method: as §2

[7] = tested on: C8161; test: Cell vitality assay (ATP assay, CellTiter-Glo); format: cell-based; conditions: Homo sapiens; C8161, 72 h; Table IIa; read-out: IC50 ATP-Assay after 72 h C8161
Summary of the method: as §2

[8] = tested on: SF763; test: Cell vitality assay (ATP assay, CellTiter-Glo); format: cell-based; conditions: SF763, 72 h; Table IIa; read-out: IC50 ATP-Assay after 72 h SF763
Summary of the method: as §2

[9] = tested on: Hs578T; test: Cell vitality assay (ATP assay, CellTiter-Glo); format: cell-based; conditions: Homo sapiens, Hs-578T, 72 h
Summary of the method: as §2

[10] = tested on: indicated cell line; test: Wound healing migration assay (Table IV); format: cell-based; conditions: compounds at 12.5, 6.25, 3.125 μM, 48 h-72 h
Summary of the method: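 Compound exposure at 12.5, 6.25 and 3.125 μM, with DMSO control, on scratch-wounded monolayers (150000 cells/24 well, overnight). Wound closure imaged by microscopy, fixed with crystal violet after 48 h or 72 h depending on cell line; IC50 is the concentration giving 50% wound size between t0 and t48/t72.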

[11] = tested on: A172; test: Cell vitality assay (ATP assay, CellTiter-Glo); format: cell-based; conditions: Homo sapiens, A 172; A172, 72 h; Table IIa; read-out: IC50 ATP-Assay after 72 h A172
Summary of the method: as §2

[12] = Homo sapiens, C8161 cells, read-out: Total branching inhibition in Matrigel C8161
[13] = Homo sapiens, Hs-578T, Hs578T cells, read-out: Total branching inhibition in Matrigel Hs578T
[14] = U118 cells, read-out: Total branching inhibition in Matrigel U118
[15] = U138 cells, read-out: Total branching inhibition in Matrigel U138
[16] = Hs578T, Table IIa, read-out: IC50 ATP-Assay after 72 h Hs578T
[17] = Homo sapiens, C8161 cells, read-out: IC50 Wound healing Assay C8161
[18] = SF763 cells, read-out: IC50 Wound healing Assay SF763

COc1cc2c(Oc3ccc(NS(=O)(=O)c4ccccc4C(F)(F)F)cc3F)ccnc2cc1OCC(=O)N(C)C [Example 93, 2-{4-[2-Fluoro-4-(2-trifluoromethyl-benzenesulfonylamino)-phenoxy]-6-methoxy-quinolin-7-yloxy}-N,N-dimethyl-acetamide]
IC50 [1]: ≤ 10 µM | IC50 [2, 12]: ≤ 5 µM | IC50 [2, 13]: ≤ 5 µM | IC50 [2, 14]: ≤ 5 µM | IC50 [2, 15]: 5 to 50 µM | melting point: 134 to 135 °C | IC50 [3]: ≤ 12.5 µM | IC50 [4]: 12.5 to 50 µM | IC50 [5]: 12.5 to 50 µM | IC50 [6]: ≤ 12.5 µM | IC50 [7]: ≤ 12.5 µM | IC50 [8]: 12.5 to 50 µM | IC50 [9, 16]: ≤ 12.5 µM | IC50 [10, 17]: ≤ 12.5 µM | IC50 [10, 18]: 12.5 to 50 µM

COc1cc2c(Oc3ccc(NS(=O)(=O)c4cccc(Oc5ccccc5)c4)cc3F)ccnc2cc1OCCCN1CCN(C)CC1 [Example 14, N-(3-Fluoro-4-{6-methoxy-7-[3-(4-methyl-piperazin-1-yl)-propoxy]-quinolin-4-yloxy}-phenyl)-3-phenoxy-benzenesulfonamide]
IC50 [2, 12]: 5 to 50 µM | IC50 [2, 13]: 5 to 50 µM | IC50 [2, 14]: ≤ 5 µM | IC50 [2, 15]: 5 to 50 µM | melting point: 140 to 141 °C | IC50 [3]: 12.5 to 50 µM | IC50 [4]: ≤ 12.5 µM | IC50 [5]: 12.5 to 50 µM | IC50 [6]: ≤ 12.5 µM | IC50 [7]: ≤ 12.5 µM | IC50 [8]: ≤ 12.5 µM | IC50 [10, 17]: 12.5 to 50 µM | IC50 [10, 18]: 12.5 to 50 µM

COc1cc2c(Oc3ccc(NS(=O)(=O)c4cccc(-c5ccccc5)c4)cc3F)ccnc2cc1OCCCN1CCCCC1 [Example 8, Biphenyl-3-sulfonic acid {3-fluoro-4-[6-methoxy-7-(3-piperidin-1-yl-propoxy)-quinolin-4-loxy]-phenyl}-amide]
IC50 [1]: ≤ 10 µM | IC50 [2, 12]: ≤ 5 µM | IC50 [2, 13]: ≤ 5 µM | IC50 [2, 14]: ≤ 5 µM | IC50 [2, 15]: ≤ 5 µM | melting point: 113 to 115 °C | IC50 [3]: ≤ 12.5 µM | IC50 [5]: ≤ 12.5 µM | IC50 [11]: ≤ 12.5 µM | IC50 [6]: ≤ 12.5 µM | IC50 [7]: ≤ 12.5 µM | IC50 [8]: ≤ 12.5 µM | IC50 ([9]; HS578T cell line, Table Ib, read-out: IC50 ATP-Assay HS578T after 72 h): 12.5 to 50 µM | IC50 [9, 16]: 12.5 to 50 µM | IC50 ([10]; Homo sapiens, A 172, A172 cells, read-out: IC50 Wound healing Assay A172): ≤ 12.5 µM | IC50 ([10]; Homo sapiens, SF-126, SF126 cells, read-out: IC50 Wound healing Assay SF126): ≤ 12.5 µM | IC50 [10, 17]: 12.5 to 50 µM | IC50 [10, 18]: ≤ 12.5 µM | IC50 ([10]; U118 cells, read-out: IC50 Wound healing Assay U118): ≤ 12.5 µM

COc1cc2c(Oc3ccc(NS(=O)(=O)c4ccccc4C(F)(F)F)cc3F)ccnc2cc1OCCCNC1CCOCC1 [Example 95, N-(3-Fluoro-4-{6-methoxy-7-[3-(tetrahydro-pyran-4-ylamino)-propoxy]-quinolin-4-yloxy}-phenyl)-2-trifluoromethyl-benzenesulfonamide]
IC50 [1]: ≤ 10 µM | IC50 [2, 12]: ≤ 5 µM | IC50 [2, 13]: ≤ 5 µM | IC50 [2, 14]: 5 to 50 µM | IC50 [2, 15]: 5 to 50 µM | IC50 [3]: ≤ 12.5 µM | IC50 [4]: ≤ 12.5 µM | IC50 [5]: ≤ 12.5 µM | IC50 [6]: ≤ 12.5 µM | IC50 [7]: 12.5 to 50 µM | IC50 [8]: ≤ 12.5 µM | IC50 [9, 16]: 12.5 to 50 µM | IC50 [10, 17]: 12.5 to 50 µM | IC50 [10, 18]: 12.5 to 50 µM

COc1cc2c(Oc3c(Cl)cc(NS(=O)(=O)c4c(F)cccc4F)cc3Cl)ccnc2cc1OCCCN1CCN(C)CC1 [Example 88, N-(3,5-Dichloro-4-{6-methoxy-7-[3-(4-methyl-piperazin-1-yl)-propoxy]-quinolin-4-yloxy}-phenyl)-2,6-difluoro-benzenesulfonamide]
IC50 [1]: 10 to 25 µM | IC50 [2, 12]: ≤ 5 µM | IC50 [2, 13]: 5 to 50 µM | IC50 [2, 14]: 5 to 50 µM | IC50 [2, 15]: 5 to 50 µM | IC50 [3]: ≤ 12.5 µM | IC50 [4]: ≤ 12.5 µM | IC50 [5]: 12.5 to 50 µM | IC50 [6]: 12.5 to 50 µM | IC50 [7]: ≤ 12.5 µM | IC50 [8]: 12.5 to 50 µM | IC50 [9, 16]: ≤ 12.5 µM | IC50 [10, 17]: 12.5 to 50 µM | IC50 [10, 18]: ≤ 12.5 µM
